Literature values in paper PMC6931083 (Journal of Pharmaceutical Analysis, 2019).

Conditions: ref 6 (Hentz et al.)

Substance	Decrease in biological activity as compared to the native insulin	Biological activity compared to the native insulin
di-conjugated FITC-insulin: di-conjugated FITC-insulin at B1 and A1 (literature value, Hentz et al.)	100%	
A1 conjugated FITC-insulin: literature (Hentz et al.) FITC-insulin conjugated at A1	10%	
mono-conjugated FITC-insulin (tagged at B1 position): literature (Hentz et al.) mono-conjugated FITC-insulin tagged at B1 position		same biological activity as the native insulin
